Counter-ions that a name gives are not always drawn. Like-named read-outs stand apart in the source and are kept apart here.
Target: Btk enzyme (His-Btk) (Homo sapiens (Human), UniProt Q06187)
Experiment: Btk enzyme activity, IMAP fluorescence polarization assay (Assay Method A)
[1] = read-out: EC50 Btk activity values - Assay Method A, IMAP-FP, 60 min pre-incubation, 5 μM ATP, class 100-1000 is given as ≧100 nM-<1 μM

Btk enzyme (His-Btk), sequence (Q06187 whole entry): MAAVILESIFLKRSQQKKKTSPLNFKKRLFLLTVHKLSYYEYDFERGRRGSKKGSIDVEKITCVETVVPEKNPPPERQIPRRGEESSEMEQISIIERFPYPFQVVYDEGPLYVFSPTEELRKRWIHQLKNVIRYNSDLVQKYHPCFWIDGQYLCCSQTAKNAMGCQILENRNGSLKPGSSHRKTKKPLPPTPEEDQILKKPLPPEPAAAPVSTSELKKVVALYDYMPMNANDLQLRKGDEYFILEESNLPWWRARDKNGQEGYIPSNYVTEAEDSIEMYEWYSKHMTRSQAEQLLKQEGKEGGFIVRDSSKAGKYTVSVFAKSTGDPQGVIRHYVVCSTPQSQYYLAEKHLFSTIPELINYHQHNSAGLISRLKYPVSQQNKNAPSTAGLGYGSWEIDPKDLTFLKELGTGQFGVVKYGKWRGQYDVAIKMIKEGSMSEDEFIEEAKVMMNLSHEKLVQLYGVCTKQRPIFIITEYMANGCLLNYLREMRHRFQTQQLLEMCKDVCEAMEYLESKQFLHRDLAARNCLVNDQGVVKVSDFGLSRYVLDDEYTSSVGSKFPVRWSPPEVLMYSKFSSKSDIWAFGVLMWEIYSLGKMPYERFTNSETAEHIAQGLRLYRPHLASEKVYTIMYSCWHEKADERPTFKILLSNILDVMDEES

EC50 [nM]	EC50 [1] [nM]	Compound	further results
10 to 100		CC(C)C(=O)N1CCC[C@@H](n2nc(-c3ccc(C(=O)Nc4cc(C(F)(F)F)ccn4)cc3)c3c(N)ncnc32)C1 [Example 279, (R)-4-(4-amino-1-(1-isobutyrylpiperidin-3-yl)-1H-pyrazolo[3,4-d]pyrimidin-3-yl)-N-(4-(trifluoromethyl)pyridin-2-yl)benzamide]	
	< 10	Nc1nccn2c(C3CCCC3)nc(-c3ccc(C(=O)Nc4cc(C(F)(F)F)ccn4)cc3)c12 [Example 43, 4-(8-amino-3-cyclopentylimidazo[1,5-a]pyrazin-1-yl)-N-(4-(trifluoromethyl)pyridin-2-yl)benzamide, TFA salt]	
< 10		CC(CNC(=O)C1(C)COC1)c1nc(-c2ccc(C(=O)Nc3cc(C(F)(F)F)ccn3)cc2)c2c(N)nccn12 (centres unmarked) [Example 131, N-(2-(8-amino-1-(4-(4-(trifluoromethyl)pyridin-2-ylcarbamoyl)phenyl)imidazo[1,5-a]pyrazin-3-yl)propyl)-3-methyloxetane-3-carboxamide]	
10 to 100		Nc1ncnc2c1c(-c1ccc(C(=O)Nc3cc(C(F)(F)F)ccn3)cc1)nn2[C@@H]1CCCN(C(=O)C(F)(F)F)C1 [Example 274, (R)-4-(4-amino-1-(1-(2,2,2-trifluoroacetyl)piperidin-3-yl)-1H-pyrazolo[3,4-d]pyrimidin-3-yl)-N-(4-(trifluoromethyl)pyridin-2-yl)benzamide]	
	< 10	CSCCC(=O)N1CCC[C@@H](n2nc(-c3ccc(C(=O)Nc4cc(C(F)(F)F)ccn4)cc3)c3c(N)ncnc32)C1 [Example 276, (R)-4-(4-amino-1-(1-(3-(methylthio)propanoyl)piperidin-3-yl)-1H-pyrazolo[3,4-d]pyrimidin-3-yl)-N-(4-(trifluoromethyl)pyridin-2-yl)benzamide]	
	< 10	Nc1nccn2c([C@H]3[C@@H]4COC[C@@H]43)nc(-c3ccc(C(=O)Nc4cc(C(F)(F)F)ccn4)cc3)c12 [Example 31, 4-(8-amino-34(1R,5S,6S)-3-oxabicyclo[3.1.0]hexan-6-yl)imidazo[1,5-a]pyrazin-1-yl)-N-(4-(trifluoromethyl)pyridin-2-yl)benzamide, TFA salt]	
	< 10	COCCC(=O)N1CCC[C@@H](c2nc(-c3ccc(C(=O)Nc4cc(C(F)(F)F)ccn4)cc3)c3c(N)ncc(/C=C/c4ccccc4)n23)C1 [Example 310, (R,E)-4-(8-amino-3-(1-(3-methoxypropanoyl)piperidin-3-yl)-5-styrylimidazo[1,5-a]pyrazin-1-yl)-N-(4-(trifluoromethyl)pyridin-2-yl)benzamide]	
	< 10	CCc1ccnc(NC(=O)c2ccc(-c3nc([C@H]4CC[C@H](O)CC4)n4ccnc(N)c34)cc2)c1 [Example 19, 4-(8-amino-3-((trans)-4-hydroxycyclohexyl)imidazo[1,5-a]pyrazin-1-yl)-N-(4-ethylpyridin-2-yl)benzamide]	
	< 10	Nc1nccn2c([C@@H]3CCC[C@@H](N)C3)nc(-c3ccc(C(=O)Nc4cc(C(F)(F)F)ccn4)cc3)c12 (relative stereo) [Example 165, 4-(8-amino-3-((trans)-3-aminocyclohexyl)imidazo[1,5-a]pyrazin-1-yl)-N-(4-(trifluoromethyl)pyridin-2-yl)benzamide]	
100 to 1000		Cc1nc(-c2ccc(C(=O)Nc3cc(C(F)(F)F)ccn3)cc2)c2c(N)ncc(C(=O)NCc3ccccc3)n12 [Example 292, 8-amino-N-benzyl-3-methyl-1-(4-(4-(trifluoromethyl)pyridin-2-ylcarbamoyl)phenyl)imidazo[1,5-a]pyrazine-5-carboxamide]	
	< 10	COCCC(=O)N[C@@H]1CCCN(c2nc(-c3ccc(C(=O)Nc4cc(C(F)(F)F)ccn4)cc3)c3c(N)nccn23)C1 [Example 219, (R)-4-(8-amino-3-(3-(3-methoxypropanamido)piperidin-1-yl)imidazo[1,5-a]pyrazin-1-yl)-N-(4-(trifluoromethyl)pyridin-2-yl)benzamide]	
< 10		CS(=O)(=O)N1CC(C(=O)N2CCC[C@@H](c3nc(-c4ccc(C(=O)Nc5cc(C(F)(F)F)ccn5)cc4)c4c(N)nccn34)C2)C1 [Example 73, (R)-4-(8-amino-3-(1-(1-(methylsulfonyl)azetidine-3-carbonyl)piperidin-3 yl)imidazo[1,5-a]pyrazin-1-yl)-N-(4-(trifluoromethyl)pyridin-2-yl)benzamide]	
10 to 100		COCCC(=O)N1CCC[C@@H](c2nc(-c3ccc(C(=O)Nc4ccccn4)c(C)c3)c3c(N)nccn23)C1 [Example 286, (R)-4-(8-amino-3-(1-(3-methoxypropanoyl)piperidin-3-yl)imidazo[1,5-a]pyrazin-1-yl)-2-methyl-N-(pyridin-2-yl)benzamide, TFA salt]	
10 to 100		Nc1nccn2c([C@@H]3CCC[C@H](N)C3)nc(-c3ccc(C(=O)Nc4cc(C(F)(F)F)ccn4)cc3)c12 (relative stereo) [Example 157, 4-(8-amino-3-((cis)-3-aminocyclohexyl)imidazo[1,5-a]pyrazin-1-yl)-N-(4-(trifluoromethyl)pyridin-2-yl)benzamide]	
	< 10	CC1(C(=O)N2CCC[C@@H](c3nc(-c4ccc(C(=O)Nc5cc(C(F)(F)F)ccn5)cc4)c4c(N)ncc(/C=C/c5ccccc5)n34)C2)COC1 [Example 309, (R,E)-4-(8-amino-3-(1-(3-methyloxetane-3-carbonyl)piperidin-3-yl)-5-styrylimidazo[1,5-a]pyrazin-1-yl)-N-(4-(trifluoromethyl)pyridin-2-yl)benzamide]	
	< 10	CCCc1ccnc(NC(=O)c2ccc(-c3nc(C4CCOCC4)n4c(Cl)cnc(N)c34)cc2)c1 [Example 298, 4-(8-amino-5-chloro-3-(tetrahydro-2H-pyran-4-yl)imidazo[1,5-a]pyrazin-1-yl)-N-(4-propylpyridin-2-yl)benzamide]	
10 to 100		Nc1nccn2c([C@@H]3CCCN(C(=O)NC45CC6CC(CC(C6)C4)C5)C3)nc(-c3ccc(C(=O)Nc4cc(C5CC5)ccn4)cc3)c12 [Example 121]	
10 to 100		CC1(C(=O)N2CCC[C@@H](c3nc(-c4ccc(C(=O)Nc5cc(C(F)(F)F)ccn5)cc4)c4c(N)ncc(C5=CCOCC5)n34)C2)COC1 [Example 322, (R)-4-(8-amino-5-(3,6-dihydro-2H-pyran-4-yl)-3-(1-(3-methyloxetane-3-carbonyl)piperidin-3-yl)imidazo[1,5-a]pyrazin-1-yl)-N-(4-(trifluoromethyl)pyridin-2-yl)benzamide]	
< 10		COCCC(=O)N1CCC[C@@H](c2nc(-c3ccc(C(=O)Nc4cc(C5CC5)ccn4)cc3)c3c(N)nccn23)C1 [Example 61, (R)-4-(8-amino-3-(1-(3-methoxypropanoyl)piperidin-3 yl)imidazo[1,5-a]pyrazin-1-yl)-N-(4-cyclopropylpyridin-2-yl)benzamide]	
		Nc1ncc(Cl)n2c([C@@H]3CCCNC3)nc(-c3ccc(C(=O)Nc4cc(C(F)(F)F)ccn4)cc3)c12 [Example 307]	EC50 (read-out: EC50 Btk activity values - Assay Method A): < 10 nM
10 to 100		CCN(CC)C(=O)C1CCCN(c2nc(-c3ccc(C(=O)Nc4ccccn4)cc3)c3c(N)nccn23)C1 (centres unmarked) [Example 230, 1-(8-amino-1-(4-(pyridin-2-ylcarbamoyl)phenyl)imidazo[1,5-a]pyrazin-3-yl)-N,N-diethylpiperidine-3-carboxamide, TFA salt]	
	< 10	CSCCNC(=O)C1CCCN(c2nc(-c3ccc(C(=O)Nc4cc(C(F)(F)F)ccn4)cc3)c3c(N)nccn23)C1 (centres unmarked) [Example 239, 1-(8-amino-1-(4-(4-(trifluoromethyl)pyridin-2-ylcarbamoyl)phenyl)imidazo[1,5-a]pyrazin-3-yl)-N-(2-(methylthio)ethyl)piperidine-3-carboxamide, TFA salt]	
10 to 100		Nc1nccn2c(N3CCC3)nc(-c3ccc(C(=O)Nc4cc(C(F)(F)F)ccn4)cc3)c12 [Example 210, 4-(8-amino-3-(azetidin-1-yl)imidazo[1,5-a]pyrazin-1-yl)-N-(4-(trifluoromethyl)pyridin-2-yl)benzamide]	
10 to 100		CC1(C(=O)N2CCC[C@@H](c3nc(-c4ccc(C(=O)Nc5cnccn5)cc4)c4c(N)nccn34)C2)COC1 [Example 290, (R)-4-(8-amino-3-(1-(3-methyloxetane-3-carbonyl)piperidin-3-yl)imidazo[1,5-a]pyrazin-1-yl)-N-(pyrazin-2-yl)benzamide]	
	< 10	CC(C)(F)C(=O)N[C@@H]1CCC[C@@H](c2nc(-c3ccc(C(=O)Nc4cc(C(F)(F)F)ccn4)cc3)c3c(N)nccn23)C1 (relative stereo) [Example 163, 4-(8-amino-3-((trans)-3-(2-fluoro-2-methylpropanamido)cyclohexyl)imidazo[1,5-a]pyrazin-1-yl)-N-(4-(trifluoromethyl)pyridin-2-yl)benzamide]	
	< 10	C[C@H]1CC[C@@H](c2nc(-c3ccc(C(=O)Nc4ccccn4)cc3)c3c(N)nccn23)CN1C(=O)CC1CC1 (relative stereo) [Example 191, 4-(8-amino-3-((cis)-1-(2-cyclopropylacetyl)-6-methylpiperidin-3-yl)imidazo[1,5-a]pyrazin-1-yl)-N-(pyridin-2-yl)benzamide, TFA salt]	
< 10		CC1(C(=O)N2CCC[C@@H](c3nc(-c4ccc(C(=O)Nc5cc(C(F)(F)F)ccn5)cc4)c4c(N)ncnn34)C2)CCC1 [Example 254, (R)-4-(4-amino-7-(1-(1-methylcyclobutanecarbonyl)piperidin-3-yl)imidazo[1,5-f][1,2,4]triazin-5-yl)-N-(4-(trifluoromethyl)pyridin-2-yl)benzamide]	

Compound	EC50 [nM]	EC50 [1] [nM]	further results
CCC(=O)N1C2CCC1C(c1nc(-c3ccc(C(=O)Nc4ccccn4)cc3)c3c(N)nccn13)C2 (centres unmarked) [Example 147, 4-(8-amino-3-(7-propionyl-7-azabicyclo[2.2.1]heptan-2-yl)imidazo[1,5-a]pyrazin-1-yl)-N-(pyridin-2-yl)benzamide]	100 to 1000		
Nc1nccn2c(C3CC4CCC3N4C(=O)C3CCCO3)nc(-c3ccc(C(=O)Nc4ccccn4)cc3)c12 (centres unmarked) [Example 146, 4-(8-amino-3-(7-(tetrahydrofuran-2-carbonyl)-7-azabicyclo[2.2.1]heptan-2-yl)imidazo[1,5-a]pyrazin-1-yl)-N-(pyridin-2-yl)benzamide]	10 to 100		

Reference: patent US9718828B2 (MERCK SHARP & DOHME CORP., priority 2011, dated 2017)
